Measurements as given in US7368576B2, “Dipeptidyl peptidase IV inhibitors and their uses as anti-cancer agents” (Probiodrug AG, priority 2001, dated 2008).

Tests used:
Type in all cases: biochemical
[1] = target: T1, dipeptidyl peptidase IV from porcine kidney (Sus scrofa, UniProt P22411); assay: Ki determination, DPIV inhibition (glycylprolyl-4-nitroaniline); settings: HEPES pH7.6, 30° C.
T1 construct: dipeptidyl peptidase IV from porcine kidney; from tissue; host or cells: porcine kidney

[2] = target: T2, porcine dipeptidyl peptidase II (DP II) (Sus scrofa, UniProt A0A5G2QK18); assay: Inhibition of DPIV-like enzymes, dipeptidyl peptidase II; settings: lysylalanylaminomethylcoumarine, 30° C.; read-out: Ki against porcine dipeptidyl peptidase II
T2 construct: The enzyme used was purified from porcine kidney; from tissue; host or cells: porcine kidney
Description: DP II (3.4.14.2) releases N-terminal dipeptides from oligopeptides if the N-terminus is not protonated (McDonald, J. K., Ellis, S. & Reilly, T. J., 1966, J. Biol. Chem., 241, 1494-1501). Pro and Ala in Pi-position are preferred residues. The enzyme activity is described as DPIV-like activity, but DP II has an acidic pH-optimum. The enzyme used was purified from porcine kidney.
100 μl glutaminyl pyrrolidine or glutaminyl thiazolidine in an concentration range of 1*10^−4 M-5*10^−8 M were admixed with 100 μl μl buffer solution (40 mM HEPES, pH7.6, 0.015% Brij, 1 mM DTT), 50 μl lysylalanylaminomethylcoumarine solution (5 mM) and 20 μl porcine DP II (250fold diluted in buffer solution). Fluorescence measurement was performed at 30° C. and λexiatation=380 nm, λemission=465 nm for 25 min using a plate reader (HTS7000plus, Applied Biosystems, Weiterstadt, Germany).

[3] = target: T3, Prolidase from porcine kidney (Sus scrofa, UniProt A0A5G2QQV1); assay: Cross reacting enzymes: prolidase; settings: Ile-Pro-OH 0.5 mM, pH 7.6; read-out: IC50 against prolidase
T3 construct: Prolidase from porcine kidney; purchased ICN Biomedicals, Eschwege, Germany; host or cells: porcine kidney
T3 sequence (A0A5G2QQV1 1-463): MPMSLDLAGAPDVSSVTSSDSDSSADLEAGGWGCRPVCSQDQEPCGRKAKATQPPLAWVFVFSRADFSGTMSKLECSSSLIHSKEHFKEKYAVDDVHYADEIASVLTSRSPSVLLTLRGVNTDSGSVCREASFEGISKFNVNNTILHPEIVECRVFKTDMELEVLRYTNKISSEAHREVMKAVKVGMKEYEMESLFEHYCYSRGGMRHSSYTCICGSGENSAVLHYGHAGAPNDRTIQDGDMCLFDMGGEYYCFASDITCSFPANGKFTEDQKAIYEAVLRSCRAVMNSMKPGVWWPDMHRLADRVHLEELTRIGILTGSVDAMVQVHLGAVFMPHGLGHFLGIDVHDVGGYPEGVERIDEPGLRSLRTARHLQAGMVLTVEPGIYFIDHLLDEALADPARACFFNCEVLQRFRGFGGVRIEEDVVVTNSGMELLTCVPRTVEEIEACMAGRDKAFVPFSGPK
Description: Prolidase from porcine kidney (ICN Biomedicals, Eschwege, Germany) was solved (1 mg/ml) in assay buffer (20 mM NH4(CH3COO)2, 3 mM MnCl2, pH 7.6). In order to get a fully active enzyme the solution was incubated for 60 min at room temperature.
450 μl glutaminyl pyrrolidine or glutaminyl thiazolidine in an concentration range of 5*10^−3 M-5*10^−7 M were admixed with 500 μl buffer solution (20 mM […], pH 7.6) and 250 μl Ile-Pro-OH (0.5 mM in the assay mixture). The assay mixture was pre-incubated at 30° C. for 5 min. After pre-incubation, 75 μl Prolidase (1:10 diluted in assay buffer) were added and measurement was performed at 30° C. and λ=220 nm for 20 min using a UV/Vis photometer, UV1 (Thermo Spectronic, Cambridge, UK).
The IC 50-values were calculated using Graphit 4.0.15 (Erithacus Software, Ltd., UK).

T2 sequence (A0A5G2QK18 28-502): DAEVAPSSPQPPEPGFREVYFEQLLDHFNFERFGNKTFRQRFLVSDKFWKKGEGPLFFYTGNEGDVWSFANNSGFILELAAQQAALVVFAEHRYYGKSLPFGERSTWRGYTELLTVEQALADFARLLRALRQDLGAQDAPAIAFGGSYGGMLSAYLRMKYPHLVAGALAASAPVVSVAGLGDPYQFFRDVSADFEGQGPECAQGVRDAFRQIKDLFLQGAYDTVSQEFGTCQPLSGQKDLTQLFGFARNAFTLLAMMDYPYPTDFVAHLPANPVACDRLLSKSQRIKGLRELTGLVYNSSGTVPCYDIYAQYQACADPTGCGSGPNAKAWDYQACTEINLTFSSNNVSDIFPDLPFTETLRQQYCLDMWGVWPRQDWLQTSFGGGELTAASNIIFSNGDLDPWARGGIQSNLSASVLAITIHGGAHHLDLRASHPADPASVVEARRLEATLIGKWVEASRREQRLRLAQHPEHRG
T1 sequence (P22411 whole entry): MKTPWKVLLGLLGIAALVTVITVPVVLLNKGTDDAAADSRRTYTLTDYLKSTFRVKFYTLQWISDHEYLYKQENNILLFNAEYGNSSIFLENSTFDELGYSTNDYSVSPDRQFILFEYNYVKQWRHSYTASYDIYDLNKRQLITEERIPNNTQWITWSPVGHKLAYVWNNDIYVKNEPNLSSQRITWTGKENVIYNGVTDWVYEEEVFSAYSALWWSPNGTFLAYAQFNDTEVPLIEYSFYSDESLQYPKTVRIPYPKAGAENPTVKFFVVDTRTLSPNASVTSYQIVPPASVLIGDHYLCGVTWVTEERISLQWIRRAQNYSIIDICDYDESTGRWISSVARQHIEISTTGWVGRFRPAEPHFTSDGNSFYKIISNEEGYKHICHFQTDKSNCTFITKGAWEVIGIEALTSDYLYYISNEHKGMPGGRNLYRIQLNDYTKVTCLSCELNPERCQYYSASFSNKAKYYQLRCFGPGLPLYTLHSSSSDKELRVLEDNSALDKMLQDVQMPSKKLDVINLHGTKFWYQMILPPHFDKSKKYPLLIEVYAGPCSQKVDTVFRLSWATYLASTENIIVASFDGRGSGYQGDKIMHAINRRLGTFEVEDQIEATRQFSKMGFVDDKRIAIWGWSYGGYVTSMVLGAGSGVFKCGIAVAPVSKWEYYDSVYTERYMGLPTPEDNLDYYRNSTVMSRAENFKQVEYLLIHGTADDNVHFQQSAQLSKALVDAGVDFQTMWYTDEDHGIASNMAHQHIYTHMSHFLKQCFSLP

Ki [1]: 2.26 µM
Ki [2]: 85.2 µM
IC50 [3]: 340 µM
Compound: NC(=O)CCC(N)C(=O)N1CCCC1 (stereo not drawn) [Gln-Pyrr, glutaminyl pyrrolidine]
